Entries after “also recorded” stand apart in the source; their conditions may differ.
Assays:
Type in all cases: cell-based, human
ERK = test: Western blot of ERK protein; conditions: DU145; Los
Description: (§1) Western blot analysis was performed as described in Example 2. Blots were then probed with primary antibody (anti-PAX2, -phospho-PAX2, -JNK, -phospho-JNK, -ERK1/2, or -phospho-ERK1/2) (Zymed, San Francisco, Calif.) at 1:1000-2000 dilutions. After washing, the membranes were incubated with anti-rabbit antibody conjugated to horseradish peroxidase (HRP) (dilution 1:5000; Sigma), and signal detection was visualized using chemilluminescence reagents (Pierce) on an Alpha Innotech Fluorchem 8900. As a control, blots were stripped and re-probed with mouse anti-β-actin primary antibody (1:5000; Sigma-Aldrich) and HRP— conjugated anti-mouse secondary antibody (1:5000; Sigma-Aldrich), and signal detection was again visualized.\

phospho-JNK = test: Western blot of phospho-JNK; conditions: DU145
Description: as §1, with “Blots were then probed with primary antibody (anti-PAX2, -phospho-PAX2, -JNK, -phospho-JNK, -ERK1/2, or -phospho-ERK1/2) (Zymed, San Francisco, Calif.) at 1:1000-2000 dilutions.” left out

DU145 = test: Thymidine incorporation, DU145
Description: Proliferation of cells was determined by [3H] thymidine ribotide ([3H] TdR) incorporation into DNA. 0.5×10^6 cells/well of suspension DU145 cells were plated in their appropriate media. Cells were incubated for 72 h with or without the presence of AngII at the indicated concentrations. Cells were exposed to 37 kBq/ml [methyl-3H] thymidine in the same medium for 6 h. The adherent cells were fixed by 5% trichloroacetic acid and lysed in SDS/NaOH lysis buffer overnight. Radioactivity was measured by Beckman LS3801 liquid scintillation counter (Canada). Suspension cell cultures were harvested by cell harvester (Packard instrument Co., Meriden, Conn.), and radioactivity was measured by 1450 microbeta liquid scintillation counter (PerkinElmer Life Sciences).

phospho-ERK 1/2 = test: Western blot of phospho-ERK1/2; conditions: DU145, Los
Description: as §1

PAX2 expression = PAX2 expression after AngII or pathway blockers; conditions: for PAX2 expression reduced by, compared to untreated control: Los 5 μM; for PAX2 expression, fold increase: PD123319 5 μM; for increase in PAX2 expression relative to untreated hPrEC cells: 10 μM AngII
phospho-STAT3 = test: Western blot of phospho-STAT3; conditions: DU145; vs untreated control
Description: as §1, with “Blots were then probed with primary antibody (anti-PAX2, -phospho-PAX2, -JNK, -phospho-JNK, -ERK1/2, or -phospho-ERK1/2) (Zymed, San Francisco, Calif.) at 1:1000-2000 dilutions.” left out

phospho-PAX2 = test: Western blot of phospho-PAX2; conditions: DU145
Description: as §1, with “Blots were then probed with primary antibody (anti-PAX2, -phospho-PAX2, -JNK, -phospho-JNK, -ERK1/2, or -phospho-ERK1/2) (Zymed, San Francisco, Calif.) at 1:1000-2000 dilutions.” left out

PAX2 protein = test: Western blot analysis of PAX2 protein; conditions: DU145, Los 5 μM, U0126 25 μM, PD98059 20 μM, AICAR 250 μM, vs untreated control
Description: Briefly, cells were harvested by trypsinization and washed twice with PBS. Lysis buffer was prepared according to the manufacturer's instructions (Sigma), and was then added to the cells. Following a 15 minute incubation period at 4° C. on an orbital shaker, cell lysate were then collected and centrifuged for 10 minutes at 12000×g to pellet cellular debris. The protein-containing supernatant were then collected and quantitated. Next, 25 μg protein extract was loaded onto an 8-16% gradient SDS-PAGE (Novex). Following electrophoresis, proteins were transferred to PVDF membranes, and then blocked with 5% nonfat dry milk in TTBS (0.05% Tween 20 and 100 mM Tris-Cl) for 1 hour. Blots were then probed with rabbit anti-PAX2 primary antibody (Zymed, San Francisco, Calif.) at a 1:2000 dilution. After washing, the membranes were incubated with anti-rabbit antibody conjugated to horseradish peroxidase (HRP) (dilution 1:5000; Sigma), and signal detection was visualized using chemilluminescence reagents (Pierce) on an Alpha Innotech Fluorchem 8900. As a control, blots were stripped and reprobed with mouse anti-β-actin primary antibody (1:5000; Sigma-Aldrich) and HRP— conjugated anti-mouse secondary antibody (1:5000; Sigma-Aldrich) and signal detection was again visualized.
as §1
Western blot analysis was performed as described in Example 2.

DEFB1 = test: QRT-PCR of DEFB1 (hBD-1) expression; conditions: for decrease in DEFB1 expression relative to untreated hPrEC cells: 10 μM AngII
Description: Briefly, total RNA was isolated using the SV Total RNA Isolation System (Promega, Madison, Wis.) from approximately 1×10^6 cells harvested by trypsinizing. Cells were lysed and total RNA was isolated by centrifugation through spin columns. For cells collected by LCM, total RNA was isolated using the PicoPure RNA Isolation Kit (Arcturus Biosciences, Mt. View, Calif.) following the manufacturer's protocol. Total RNA (0.5 μg per reaction) from both sources was reverse transcribed into cDNA utilizing random primers (Promega). AMV Reverse Transcriptase II enzyme (500 units per reaction; Promega) was used for first strand synthesis and Tfl DNA Polymerase for second strand synthesis (500 units per reaction; Promega) as per the manufacturer's protocol. In each case, 50 pg of cDNA was used per ensuing PCR reaction. Two-step QRT-PCR was performed on cDNA generated using the MultiScribe Reverse Transcripatase from the TaqMan Reverse Transcription System and the SYBR® Green PCR Master Mix (Applied Biosystems).
Forty cycles of PCR were performed under standard conditions using an annealing temperature of 56° C. In addition, β-actin (Table 2) was amplified as a housekeeping gene to normalize the initial content of total cDNA. […]
Quantitative real-time RT-PCR was performed as described in Example 1 to verify changes in gene expression following PAX2 knockdown in PC3 and DU145 prostate cancer cell lines and the hPrEC normal prostate epithelial cells. […] Quantification was determined by the cycle number where exponential amplification began (threshold value) and averaged from the values obtained from the triplicate repeats. […] Relative expression was calculated as the ratio between each genes and GAPDH. […]
QRT-PCR was performed as previously described (Gibson et al., 2007). […] Gene expression in benign prostate tissue samples was calculated as the expression ratio compared to β-actin. Levels of hBD-1 expression in malignant prostate tissue, hPREC prostate primary culture, and prostate cancer cell lines before and after induction were calculated relative to the average level of hBD-1 expression in hPrEC cells. […]

[1] = DU145, U0126 25 μM, PD98059 20 μM

CCCCc1nc(Cl)c(CO)n1Cc1ccc(-c2ccccc2-c2nn[nH]n2)cc1 [Los, Losartan]
ERK protein levels (ERK): no effect
phospho-JNK protein levels (phospho-JNK): did not decrease; also recorded: failed to decrease phospho-JNK protein levels
proliferation rate decreased by (DU145; Los): 50%
effect of AngII on proliferation (DU145; pre-treating with Los for 30 min): suppressed the effect of AngII on proliferation
phospho-ERK protein level (phospho-ERK 1/2): reduced the amount of phospho-ERK
phospho-ERK protein level (phospho-ERK 1/2; listed as Losartan): suppresses phospho-ERK 1/2
PAX2 expression reduced by, compared to untreated control (PAX2 expression; DU145, 48 hours): 37%
PAX2 expression reduced by, compared to untreated control (PAX2 expression; DU145, 72 hours): 50%
effect of AngII on PAX2 expression (PAX2 expression; DU145, Los (FIG. 21 legend)): blocks the effect of Angiotensin II
phospho-STAT3 protein levels (phospho-STAT3): reduced phospho-STAT3 protein levels; also recorded: suppress phospho-STAT3 protein levels
phospho-PAX2 protein levels (phospho-PAX2): significant decrease or suppression; also recorded: suppress phospho-PAX2 protein expression levels
PAX2 protein levels (PAX2 protein): significant reduction of PAX2 expression
PAX2 protein levels (PAX2 protein; listed as Losartan): suppress PAX2 protein levels

Cc1cc(Cn2cnc3c2C[C@@H](C(=O)O)N(C(=O)C(c2ccccc2)c2ccccc2)C3)ccc1N(C)C [PD123319]
PAX2 expression, fold increase (PAX2 expression; DU145, 48 hours): 7 fold
PAX2 expression, fold increase (PAX2 expression; DU145, 96 hours): 8 fold

COc1cccc(-c2cc(=O)c3ccccc3o2)c1N [PD98059]
PAX2 expression (PAX2 expression; [1]): decreased PAX2
phospho-STAT3 protein levels (phospho-STAT3): reduced phospho-STAT3 protein levels; also recorded: suppress phospho-STAT3 protein levels
phospho-PAX2 protein levels (phospho-PAX2): significant decrease or suppression; also recorded: suppress phospho-PAX2 protein expression levels
PAX2 protein levels (PAX2 protein): suppress PAX2 protein levels

Angiotensin II (DRVYIHPF; Angiotensin-2; UniProt P01019 25-32, looked up) [AngII]
proliferation rate (DU145; AngII, 72 h): two- to three-fold increase; also recorded: increases DU145 cell proliferation
PAX2 expression (PAX2 expression; DU145, AngII treatment over 30 min to 48 hour): progressively increased over time
increase in PAX2 expression relative to untreated hPrEC cells (PAX2 expression; hPrEC, 72 hours): 66%
increase in PAX2 expression relative to untreated hPrEC cells (PAX2 expression; hPrEC, 96 hours): 79%
PAX2 expression levels (PAX2 expression; hPrEC, AngII (FIG. 25 legend)): increases PAX2 expression levels
PAX2 expression as % of PAX2 levels in PC3 cells (PAX2 expression; hPrEC, AngII, 72 hours): 77%
PAX2 expression as % of PAX2 expression in PC3 cells (PAX2 expression; hPrEC, AngII, 96 hours): 89%
decrease in DEFB1 expression relative to untreated hPrEC cells (DEFB1; 72 hours): 35%
decrease in DEFB1 expression relative to untreated hPrEC cells (DEFB1; 96 hours): 50%
DEFB1 expression levels (DEFB1; hPrEC, AngII (FIG. 25 legend)): decreases DEFB1 expression levels

NC(=O)c1ncn([C@@H]2O[C@H](CO)[C@@H](O)[C@H]2O)c1N [AICAR, 5-Aminoimidazole-4-carboxamide-1-β-4-ribofuranoside]
phospho-STAT3 protein levels (phospho-STAT3): suppressed; also recorded: suppress phospho-STAT3 protein levels
phospho-PAX2 protein levels (phospho-PAX2): suppression; also recorded: suppress phospho-PAX2 protein expression levels
PAX2 protein levels (PAX2 protein): suppression of PAX2 expression; also recorded: suppress PAX2 protein levels

N#CC(=C(/N)Sc1ccccc1N)/C(C#N)=C(\N)Sc1ccccc1N [U0126]
phospho-JNK protein levels (phospho-JNK): did not decrease; also recorded: failed to decrease phospho-JNK protein levels
PAX2 expression (PAX2 expression; [1]): significant reduction of PAX2 expression
phospho-STAT3 protein levels (phospho-STAT3): reduced phospho-STAT3 protein levels; also recorded: suppress phospho-STAT3 protein levels
phospho-PAX2 protein levels (phospho-PAX2): significant decrease or suppression; also recorded: suppress phospho-PAX2 protein expression levels
PAX2 protein levels (PAX2 protein): suppress PAX2 protein levels
